Experimental data published in patent publication US10689365B2, “Substituted 2-alkylimidazolylcarboxamides as pesticides” (Bayer CropScience Aktiengesellschaft, priority 2016, dated 2020).
Read-outs that look alike come from different tables or passages of the source.

What was measured:
Myzus persicae [1] = experiment: Myzus persicae - oral test; type: in vivo; settings: application rate 20 ppm, after 5 days; for pest or weed control at 20 ppm: Myzus persicae, po, 120 h, read-out: efficacy
Method: (§1) Solvent: 100 parts by weight of acetone
(§2) To produce a suitable preparation of active compound, 1 part by weight of active compound is dissolved using the specified parts by weight of solvent and made up with water until the desired concentration is attained.
(§3) 50 μl of the active compound preparation are transferred into microtitre plates and made up to a final volume of 200 μl with 150 μl of IPL41 insect medium (33%+15% sugar). Subsequently, the plates are sealed with parafilm, which a mixed population of green peach aphids (Myzus persicae) within a second microtitre plate is able to puncture and imbibe the solution through it.
After 5 days, the efficacy in % is determined. 100% means that all the aphids have been killed; 0% means that no aphids have been killed.

Myzus persicae [2] = experiment: Myzus persicae - spray test (Chinese cabbage leaf discs); type: in vivo; settings: application rate 500 g/ha, after 5-6 days; for pest or weed control at 500 g/ha: Myzus persicae, foliar, read-out: efficacy
Method: Myzus persicae—Spray Test
Solvent: 78 parts by weight of acetone • • 1.5 parts by weight of dimethylformamide
(§4) Emulsifier: alkylaryl polyglycol ether
(§5) To produce a suitable active compound preparation, 1 part by weight of active compound is dissolved using the stated parts by weight of solvent and made up with water containing an emulsifier concentration of 1000 ppm until the desired concentration is attained. To produce further test concentrations, the formulation is diluted with emulsifier-containing water.
Discs of Chinese cabbage leaves (Brassica pekinensis) infested by all stages of the green peach aphid (Myzus persicae) are sprayed with an active ingredient formulation of the desired concentration.
After 5-6 days, the efficacy in % is determined. 100% means that all the aphids have been killed; 0% means that no aphids have been killed.

[3] = log P by HPLC on reversed-phase (C18) columns, OECD Guideline 117; type: physicochemical; settings: for chromatographic logP: reversed-phase (C18) HPLC column
Method: The log P values were determined in accordance with OECD Guideline 117 (EC Directive 92/69/EEC) by HPLC (high-performance liquid chromatography) using reversed-phase (RP) columns (C18), by the following methods:
[a] The LC-MS determination in the acidic range was carried out at pH 2.7 with 0.1% aqueous formic acid and acetonitrile (contains 0.1% formic acid) as mobile phases; linear gradient from 10% acetonitrile to 95% acetonitrile.
[b] LC-MS determination in the neutral range was carried out at pH 7.8 with 0.001 molar aqueous ammonium hydrogencarbonate solution and acetonitrile as mobile phases; linear gradient from 10% acetonitrile to 95% acetonitrile.

Myzus persicae [4] = experiment: Myzus persicae - drench test (MYZUPE D), Savoy cabbage in soil; type: in vivo; settings: 240 h, 10 dat, read-out: % efficacy
Method: Myzus persicae—Drench Test (MYZUPE D)
To produce a suitable active compound preparation, 1 part by weight of active compound is mixed with the specified amounts of solvent and emulsifier, and the concentrate is diluted with water to the desired concentration, it being necessary to include the volume of soil which is drenched in the calculation. It should be ensured that a concentration of 40 ppm of emulsifier in the soil is not exceeded. To produce further test concentrations, water is used for dilution.
Savoy cabbage (Brassica oleracea) in pots with soil and infested by all stages of the green peach aphid (Myzus persicae) is watered with an active compound preparation of the desired concentration.
(§6) After the desired period of time, the efficacy in % is determined. 100% means that all the aphids have been killed; 0% means that no aphids have been killed.

Aphis gossypii = Aphis gossypii - spray test (APHIGO S), cotton plants; type: in vivo; settings: 144 h, 6 dat, read-out: % efficacy
Method: Aphis gossypii—Spray Test (APHIGO S)
Solvent: 14 parts by weight of dimethylformamide
as §4
To produce a suitable active compound preparation, 1 part by weight of active compound is dissolved using the stated parts by weight of solvent and made up with water containing an emulsifier concentration of 1000 ppm until the desired concentration is attained. To produce further test concentrations, the formulation is diluted with emulsifier-containing water. If the addition of ammonium salts or/and penetrants is required, these are each added in a concentration of 1000 ppm to the formulation solution.
Cotton plants (Gossypium hirsutum) heavily infested by the cotton aphid (Aphis gossypii) are sprayed with an active ingredient formulation of the desired concentration.
After the desired time, the kill in % is determined. 100% means that all the aphids have been killed; 0% means that no aphids have been killed.

Myzus persicae [5] = experiment: Myzus persicae - spray test (MYZUPE), Chinese cabbage leaf discs; type: in vivo; settings: foliar; for percent efficacy (aphid mortality) at 20 g/ha / Emax at 20 g/ha: 20 g of ai/ha; for percent efficacy (aphid mortality) at 100 g/ha: 100 g of ai/ha; for Emax at 20 g/ha: read-out: % efficacy
Method: Myzus persicae—Spray Test (MYZUPE)
Solvent: 78.0 parts by weight of acetone • • 1.5 parts by weight of dimethylformamide
as §4, §5
Discs of Chinese cabbage leaves (Brassica pekinensis) infested by all stages of the green peach aphid (Myzus persicae) are sprayed with an active compound preparation of the desired concentration.
as §6

Myzus persicae [6] = experiment: Myzus persicae - oral test (MYZUPE O); type: in vivo; settings: read-out: % efficacy
Method: Myzus persicae—Oral Test (MYZUPE O)
as §1, §2, §3, §6

[7] = neutral range, pH 7.8, aqueous ammonium hydrogencarbonate/acetonitrile, read-out: logP[n]
[8] = acidic range, pH 2.7, 0.1% aqueous formic acid/acetonitrile
[9] = neutral range, pH 7.8, aqueous ammonium hydrogencarbonate/acetonitrile
[10] = acidic range, pH 2.7, 0.1% aqueous formic acid/acetonitrile, read-out: logP[a]

COCc1ncc(C(=O)N(C)c2cccnc2)n1C [Example I-1-22, 2-(Methoxymethyl)-N,1-dimethyl-N-(pyridin-3-yl)-1H-imidazole-5-carboxamide]
pest or weed control at 20 ppm (Myzus persicae [1]): 100%
pest or weed control at 500 g/ha (Myzus persicae [2]): 100%
chromatographic logP [3, 7]: 0.63

CN(C(=O)c1cnc(COCC2CC2)n1C)c1cccnc1 [Example I-1-23]
efficacy (Myzus persicae [1]): 100%
efficacy (Myzus persicae [2]): 100%
logP[a] [3, 8]: 0.67
logP[n] [3, 9]: 1.29

CN(C(=O)c1cnc(COc2cccc(Cl)c2)n1C)c1cccnc1 [Example I-1-24]
efficacy (Myzus persicae [1]): 90%
efficacy (Myzus persicae [2]): 100%
logP[a] [3, 8]: 1.69
logP[n] [3, 9]: 2.02

CN(C(=O)c1cnc(COCc2ccccc2)n1C)c1cccnc1 [Example I-1-25]
efficacy (Myzus persicae [1]): 100%
efficacy (Myzus persicae [2]): 90%
logP[a] [3, 8]: 1.10
logP[n] [3, 9]: 1.63

CCSCc1ncc(C(=O)N(C)c2cccnc2)n1C [Example I-1-27]
Emax at 0.16 ppm (Myzus persicae [4]): 98%
pest or weed control at 20 ppm (Myzus persicae [1]): 100%
Emax at 0.8 ppm (Aphis gossypii): 98%
Emax at 4 ppm (Aphis gossypii; 4 ppm): 100%
percent efficacy (aphid mortality) at 20 g/ha (Myzus persicae [5]; 120 h, 5 dat): 90%
percent efficacy (aphid mortality) at 100 g/ha (Myzus persicae [5]; 120 h, 5 dat): 90%
pest or weed control at 500 g/ha (Myzus persicae [2]): 90%
chromatographic logP [3, 10]: 0.46
chromatographic logP [3, 7]: 1.18
Emax at 4 ppm (Myzus persicae [6]; 120 h, 5 dat): 100%

COC(=O)CSCc1ncc(C(=O)N(C)c2cccnc2)n1C [Example I-1-37]
pest or weed control at 20 ppm (Myzus persicae [1]): 100%
pest or weed control at 500 g/ha (Myzus persicae [2]): 100%
chromatographic logP [3, 10]: 0.35
chromatographic logP [3, 7]: 1.04
Emax at 4 ppm (Myzus persicae [6]; 120 h, 5 dat): 100%

CN(C(=O)c1cnc(CSc2ccccc2)n1C)c1cccnc1 [Example I-1-38]
pest or weed control at 20 ppm (Myzus persicae [1]): 90%
Emax at 0.8 ppm (Aphis gossypii): 60%
percent kill (mortality) of aphids at a fixed dose at 4 ppm (Aphis gossypii; 4 ppm): 100%
pest or weed control at 500 g/ha (Myzus persicae [2]): 90%
chromatographic logP [3, 10]: 1.14
chromatographic logP [3, 7]: 1.73
Emax at 4 ppm (Myzus persicae [6]; 120 h, 5 dat): 100%

CN(C(=O)c1cnc(CSc2ccccc2Cl)n1C)c1cccnc1 [Example I-1-39]
pest or weed control at 20 ppm (Myzus persicae [1]): 100%
Emax at 0.8 ppm (Aphis gossypii): 30%
Emax at 4 ppm (Aphis gossypii; 4 ppm): 95%
percent efficacy (aphid mortality) at 20 g/ha (Myzus persicae [5]; 120 h, 5 dat): 90%
percent efficacy (aphid mortality) at 100 g/ha (Myzus persicae [5]; 120 h, 5 dat): 90%
pest or weed control at 500 g/ha (Myzus persicae [2]): 90%
chromatographic logP [3, 10]: 1.41
chromatographic logP [3, 7]: 1.99
Emax at 4 ppm (Myzus persicae [6]; 120 h, 5 dat): 100%

CN(C(=O)c1cnc(CSc2cccc(Cl)c2)n1C)c1cccnc1 [Example I-1-40]
pest or weed control at 20 ppm (Myzus persicae [1]): 100%
percent efficacy (aphid mortality) at 100 g/ha (Myzus persicae [5]; 120 h, 5 dat): 90%
pest or weed control at 500 g/ha (Myzus persicae [2]): 90%
chromatographic logP [3, 10]: 1.55
chromatographic logP [3, 7]: 2.11
Emax at 4 ppm (Myzus persicae [6]; 120 h, 5 dat): 100%

CN(C(=O)c1cnc(CSc2ccc(Cl)cc2)n1C)c1cccnc1 [Example I-1-41]
pest or weed control at 20 ppm (Myzus persicae [1]): 100%
Emax at 0.8 ppm (Aphis gossypii): 35%
Emax at 4 ppm (Aphis gossypii; 4 ppm): 100%
Emax at 20 g/ha (Myzus persicae [5]; 120 h, 5 dat): 70%
percent efficacy (aphid mortality) at 100 g/ha (Myzus persicae [5]; 120 h, 5 dat): 90%
pest or weed control at 500 g/ha (Myzus persicae [2]): 90%
chromatographic logP [3, 10]: 1.57
chromatographic logP [3, 7]: 2.07
Emax at 4 ppm (Myzus persicae [6]; 120 h, 5 dat): 100%

CN(C(=O)c1cnc(CSc2ncccn2)n1C)c1cccnc1 [Example I-1-42]
pest or weed control at 20 ppm (Myzus persicae [1]): 100%
percent efficacy (aphid mortality) at 100 g/ha (Myzus persicae [5]; 120 h, 5 dat): 70%
pest or weed control at 500 g/ha (Myzus persicae [2]): 100%
chromatographic logP [3, 10]: 0.27
chromatographic logP [3, 7]: 1.01
Emax at 4 ppm (Myzus persicae [6]; 120 h, 5 dat): 90%

CN(C(=O)c1cnc(Cn2ccnn2)n1C)c1cccnc1 [Example I-1-46]
pest or weed control at 20 ppm (Myzus persicae [1]): 100%
percent efficacy (aphid mortality) at 20 g/ha (Myzus persicae [5]; 144 h, 6 dat): 90%
percent efficacy (aphid mortality) at 100 g/ha (Myzus persicae [5]; 144 h, 6 dat): 90%
pest or weed control at 500 g/ha (Myzus persicae [2]): 100%
chromatographic logP [3, 10]: 0.05
chromatographic logP [3, 7]: 0.42
Emax at 4 ppm (Myzus persicae [6]; 144 h, 6 dat): 100%

C=Cc1ncc(C(=O)N(CC)c2cccnc2)n1C [Example I-1-56]
efficacy (Myzus persicae [1]): 90%
efficacy (Myzus persicae [2]): 90%
logP[a] [3, 8]: 0.18
logP[n] [3, 9]: 1.10

CN(C(=O)c1cnc(COc2ccc(Cl)cc2)n1C)c1cccnc1 [Example I-1-62]
efficacy (Myzus persicae [1]): 100%
efficacy (Myzus persicae [2]): 100%
logP[a] [3, 8]: 1.63
logP[n] [3, 9]: 2.00

CN(C(=O)c1cnc(COCC(F)(F)F)n1C)c1cccnc1 [Example I-1-63]
efficacy (Myzus persicae [1]): 100%
efficacy (Myzus persicae [2]): 90%
logP[a] [3, 8]: 0.84
logP[n] [3, 9]: 1.36

CCOCc1ncc(C(=O)N(C)c2cccnc2)n1C [Example I-1-64]
efficacy (Myzus persicae [1]): 100%
efficacy (Myzus persicae [2]): 100%
logP[a] [3, 8]: 0.18
logP[n] [3, 9]: 0.92

CC(C)OCc1ncc(C(=O)N(C)c2cccnc2)n1C [Example I-1-65]
efficacy (Myzus persicae [1]): 100%
efficacy (Myzus persicae [2]): 90%
logP[a] [3, 8]: 0.42
logP[n] [3, 9]: 1.20

Cc1nc(C(=O)Nc2cccnc2)c[nH]1 [Prior art WO2011/009804 (Ex. 14), reference compound]
percent efficacy (aphid mortality) at 20 g/ha (Myzus persicae [5]; 120 h, 5 dat): 0%
percent efficacy (aphid mortality) at 100 g/ha (Myzus persicae [5]; 120 h, 5 dat): 0%
Emax at 4 ppm (Myzus persicae [6]; 120 h, 5 dat): 0%

O=C(Nc1cccnc1)c1c[nH]cn1 [Prior art WO 2011/009804 (Ex. 13), reference compound]
percent efficacy (aphid mortality) at 20 g/ha (Myzus persicae [5]; 144 h, 6 dat): 0%
percent efficacy (aphid mortality) at 100 g/ha (Myzus persicae [5]; 144 h, 6 dat): 0%
Emax at 4 ppm (Myzus persicae [6]; 144 h, 6 dat): 0%

Cc1ncc(C(=O)Nc2cccnc2)n1C [reference compound]
Emax at 20 g/ha (Myzus persicae [5]; 120 h, 5 dat): 0%
percent efficacy (aphid mortality) at 100 g/ha (Myzus persicae [5]; 120 h, 5 dat): 70%
